Strand notation (5' to 3'): a small letter for the sugar, then the base; units joined by * are phosphorothioate-linked, units joined directly phosphodiester-linked; [ ] holds rarer units or linkages, { } end groups; capitals alone tell only the bases. [ms] = mesyl phosphoramidate linkage; e = 2'-O-(2-methoxyethyl) (MOE); k = constrained ethyl (cEt); [5mC] = 5-methylcytosine; d = 2'-deoxy (DNA)
Tests used:
human APOE RNA [1] = experiment: Activity in APOE C57BL/6NTac-Apoeem7250 knock-in mice, single ICV bolus, 16 weeks (Example 12); assay type: in vivo; settings: single ICV bolus 300 μg, 16 weeks post treatment, normalized to mouse Ppia
Outline: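 Knock-in mice (3-4 per group) received one ICV bolus of 300 μg oligonucleotide, PBS as control. After 16 weeks, human APOE RNA in cortex and spinal cord measured by RT-qPCR, normalized to mouse Ppia, and reported as % of PBS control.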

human APOE RNA [2] = experiment: Activity in APOE C57BL/6NTac-Apoeem7250 knock-in mice, single ICV bolus, 8 weeks (Example 11); assay type: in vivo; settings: for APOE RNA (% control) Cortex / APOE RNA (% control) Spinal Cord: single ICV bolus 300 μg, 8 weeks post treatment, normalized to mouse Ppia
Procedure: Modified oligonucleotides described above were tested in the APOE C57BL/6NTac-Apoeem7250 knock-in mouse model described above.
Each mouse received a single ICV bolus of 300 μg of modified oligonucleotide. A group of 3-4 mice received a single ICV bolus with PBS as a negative control.
Eight weeks post treatment, mice were sacrificed and RNA was extracted from cortical brain tissue and spinal cord for quantitative real-time RT-PCR analysis of RNA expression of APOE using human primer probe set RTS3073 (described herein above). APOE RNA levels were normalized to mouse Ppia. Mouse Ppia was amplified using primer probe set m_cyclo24 (described herein above). Results are presented as percent human APOE RNA relative to the amount of human APOE RNA in PBS treated animals, (% control). Each experiment is identified in separate tables below.

Substance | APOE RNA (% control) Cortex (human APOE RNA [1]) [% control] | APOE RNA (% control) Spinal Cord (human APOE RNA [1]) [% control] | APOE RNA (% control) Cortex (human APOE RNA [2]) [% control] | APOE RNA (% control) Spinal Cord (human APOE RNA [2]) [% control] | reduction of human APOE RNA in the cortex (human APOE RNA [2]; APOE knock-in mouse model, 8 weeks post administration, assay of Example 11) [%]
1652903: 6-10-4 MOE gapmer ACTTGGTGAATCTTTATTAA, linkages sooooossssssssssoss (antisense eA*e[5mC]eTeTeGeGdT*dG*dA*dA*dT*d[5mC]*dT*dT*dT*dA*eTeT*eA*eA) [compound 1652903] | 87 | 39 | 49 | 19 | 
1681003: 5-10-5 MOE gapmer GGTGAATCTTTATTAAACTA, linkages soooszsssszzszsooss (antisense eG*eGeTeGeA*dA[ms]dT*d[5mC]*dT*dT*dT[ms]dA[ms]dT*dT[ms]dA*eAeAe[5mC]*eT*eA) [compound 1681003] | 106 | 61 | 90 | 48 | 
1681004: 5-10-5 MOE gapmer GGTGAATCTTTATTAAACTA, linkages ssooszsssszzszsooss (antisense eG*eG*eTeGeA*dA[ms]dT*d[5mC]*dT*dT*dT[ms]dA[ms]dT*dT[ms]dA*eAeAe[5mC]*eT*eA) [compound 1681004] | 127 | 61 | 120 | 89 | 
1681005: 5-10-5 MOE gapmer GGTGAATCTTTATTAAACTA, linkages ssssszsssszzszsssss (antisense eG*eG*eT*eG*eA*dA[ms]dT*d[5mC]*dT*dT*dT[ms]dA[ms]dT*dT[ms]dA*eA*eA*e[5mC]*eT*eA) [compound 1681005] | 116 | 68 | 101 | 70 | 
1681006: 5-10-5 MOE gapmer GGTGAATCTTTATTAAACTA, linkages ssssszsssszzszzssss (antisense eG*eG*eT*eG*eA*dA[ms]dT*d[5mC]*dT*dT*dT[ms]dA[ms]dT*dT[ms]dA[ms]eA*eA*e[5mC]*eT*eA) [compound 1681006] | 120 | 80 | 85 | 71 | 
1681007: 5-10-5 MOE gapmer GGTGAATCTTTATTAAACTA, linkages zsssszsssszzszssszz (antisense eG[ms]eG*eT*eG*eA*dA[ms]dT*d[5mC]*dT*dT*dT[ms]dA[ms]dT*dT[ms]dA*eA*eA*e[5mC][ms]eT[ms]eA) [compound 1681007] | 96 | 67 | 71 | 47 | 
1681020: 5-10-5 MOE gapmer GGTGAATCTTTATTAAACTA, linkages zsssszsssszzszssssz (antisense eG[ms]eG*eT*eG*eA*dA[ms]dT*d[5mC]*dT*dT*dT[ms]dA[ms]dT*dT[ms]dA*eA*eA*e[5mC]*eT[ms]eA) [compound 1681020] | 92 | 59 | 63 | 35 | 
1681021: 5-10-5 MOE gapmer GGTGAATCTTTATTAAACTA, linkages zsssszsssszzssssssz (antisense eG[ms]eG*eT*eG*eA*dA[ms]dT*d[5mC]*dT*dT*dT[ms]dA[ms]dT*dT*dA*eA*eA*e[5mC]*eT[ms]eA) [compound 1681021] | 91 | 40 | 55 | 68 | 
1693039: 5-10-5 MOE gapmer CTTGGTGAATCTTTATTAAA, linkages sssosszzzssssssooss (antisense e[5mC]*eT*eT*eGeG*dT*dG[ms]dA[ms]dA[ms]dT*d[5mC]*dT*dT*dT*dA*eTeTeA*eA*eA) [compound 1693039] | 127 | 99 | 90 | 71 | 
1693040: 5-10-5 MOE gapmer CTTGGTGAATCTTTATTAAA, linkages sssosszzzssssssosss (antisense e[5mC]*eT*eT*eGeG*dT*dG[ms]dA[ms]dA[ms]dT*d[5mC]*dT*dT*dT*dA*eTeT*eA*eA*eA) [compound 1693040] | 92 | 71 | 80 | 77 | 
1809688: mixed MOE/cEt gapmer CTTGGTGAATCTTTATTAA, sugar eeeekddddddddddkkee, linkages sosssszzzssssszoss (e[5mC]*eTeT*eG*kG*dT*dG[ms]dA[ms]dA[ms]dT*d[5mC]*dT*dT*dT*dA[ms]kTkT*eA*eA) [compound 1809688] |  |  | 22 | 37 | 
1809690: mixed MOE/cEt gapmer CTTGGTGAATCTTTATTAA, sugar eeeekddddddddddkkek, linkages sosssszzzssssszoss (e[5mC]*eTeT*eG*kG*dT*dG[ms]dA[ms]dA[ms]dT*d[5mC]*dT*dT*dT*dA[ms]kTkT*eA*kA) [compound 1809690] |  |  | 26 | 24 | 
1809691: mixed MOE/cEt gapmer CTTGGTGAATCTTTATTAA, sugar eeeekddddddddddkeek, linkages sosssszzzssssszoss (e[5mC]*eTeT*eG*kG*dT*dG[ms]dA[ms]dA[ms]dT*d[5mC]*dT*dT*dT*dA[ms]kTeT*eA*kA) [compound 1809691] |  |  | 27 | 17 | 
1809741: mixed MOE/cEt gapmer CTTGGTGAATCTTTATTAAAC, sugar eeeeekddddddddddeeeee, linkages ssoooszzsssssszsooss (e[5mC]*eT*eTeGeGkT*dG[ms]dA[ms]dA*dT*d[5mC]*dT*dT*dT*dA[ms]dT*eTeAeA*eA*e[5mC]) [compound 1809741] |  |  | 33 | 28 | 
1809744: mixed MOE/cEt gapmer CTTGGTGAATCTTTATTAAAC, sugar eeeekkddddddddddeeeee, linkages zsoooszzsssssszsoosz (e[5mC][ms]eT*eTeGkGkT*dG[ms]dA[ms]dA*dT*d[5mC]*dT*dT*dT*dA[ms]dT*eTeAeA*eA[ms]e[5mC]) [compound 1809744] |  |  | 19 | 11 | 
1809745: mixed MOE/cEt gapmer CTTGGTGAATCTTTATTAAAC, sugar eeeeekddddddddddeeeee, linkages zsoooszzsssssszsoosz (e[5mC][ms]eT*eTeGeGkT*dG[ms]dA[ms]dA*dT*d[5mC]*dT*dT*dT*dA[ms]dT*eTeAeA*eA[ms]e[5mC]) [compound 1809745] |  |  | 26 | 16 | 
1809813 (eT*eTeGkG*dT*dG[ms]dA[ms]dA[ms]dT*d[5mC]*dT*dT*dT*dA[ms]kT*kT*eA*eA*eA*e[5mC]; antisense) [Compound 1809813] |  |  | 37 | 32 | 
1809818 (eT*eTeGkG*dT*dG[ms]dA[ms]dA[ms]dT*d[5mC]*dT*dT*dT*dA[ms]kT*kTeAeA*eA*e[5mC]; antisense) [Compound 1809818] |  |  | 42 | 36 | 
1810063: mixed MOE/cEt gapmer CTTGGTGAATCTTTATTAAAC, sugar eeeeeeddddddddddkkeee, linkages ssoosszzzssssszsooss (e[5mC]*eT*eTeGeG*eT*dG[ms]dA[ms]dA[ms]dT*d[5mC]*dT*dT*dT*dA[ms]dT*kTkAeA*eA*e[5mC]) [compound 1810063] |  |  | 43 | 40 | 
1810065: mixed MOE/cEt gapmer CTTGGTGAATCTTTATTAAAC, sugar eeeeekddddddddddeeeee, linkages ssoosszzzssssszsooss (listed as DNA, chemistry not fully specified) [compound 1810065] |  |  | 29 | 21 | 
1810069: mixed MOE/cEt gapmer CTTGGTGAATCTTTATTAAAC, sugar eeeeekddddddddddeeeee, linkages zsossszzzssssszsoosz (e[5mC][ms]eT*eTeG*eG*kT*dG[ms]dA[ms]dA[ms]dT*d[5mC]*dT*dT*dT*dA[ms]dT*eTeAeA*eA[ms]e[5mC]) [compound 1810069] |  |  | 24 | 27 | 
Compound No. 1517578: comparator of WO 2022/066956; CTTGGTGAATCTTTATTAAA, sugar eeeeeddddddddddeeeee, linkages sooosssssssssssooss (MOE gapmer, mixed PS/PO linkages, chemistry not fully specified) [reference compound] |  |  | 66 | 47 | 34

From patent US20250353873A1, “COMPOUNDS AND METHODS FOR MODULATING APOE EXPRESSION” (Ionis Pharmaceuticals, Inc., priority 2024, published 2025)
